# Test results: US20190231411A1, “METHOD FOR PREDICTING CYTOTOXICITY OF COLD ATMOSPHERIC PLASMA TREATMENT ON CANCER CELLS” (U.S. Patent Innovations, LLC, priority 2018, published 2019)
# Tested on: B16F10 cells
# Experiment: H2O2 treatment, MTT cell viability assay
# Assay type: cell-based, murine
# Conditions: compared with the other cell lines, FIG. 7B
# Experimental: Cell cultures. The experiment investigated 10 cancer cell lines, which include many representative cell lines in plasma medicine. Human pancreas ductal adenocarcinoma cell line (PANC-1) was purchased from American Type Culture Collection (ATCC). Other cell lines were donated by several labs at the George Washington University. These cells were all purchased from ATCC by the different labs. Human pancreatic adenocarcinoma cell line (PA-TU-8988T), human glioblastoma cell line (U87MG), as well as human lung carcinoma cell line (A549) were provided by Dr. Murad's lab. Human breast cancer cell lines (MDA-MB-231, MCF-7) were provided by Dr. Zhang's lab. Human ovarian carcinoma cell line (SK-OV-3), human ovarian carcinoma cell line (IGROV-1), human colorectal carcinoma cell line (HCT116), as well as human bone osteosarcoma cell line (U-2 OS) were provided by Dr. Zhu's lab. Murine melanoma cell line (B16F10) was provided by Dr. Sotomayor's lab. […]
# Cell viability assay. […] The absorbance at 570 nm was measured by a H1 microplate reader (Hybrid Technology). The measured absorbance was processed to be a relative cell viability by the division between the data of the experimental group and the control group.
smiles,measurement,value
OO [H2O2],resistance to H2O2 treatment,strongest resistance to H2O2 treatment
